Experimental data published in article PMC4113456, “Atypical Signaling and Functional Desensitization Response of MAS Receptor to Peptide Ligands” (PLoS ONE, 2014).
Changes are numbered by the printed parent chain. Like-named read-outs stand apart in the source and are kept apart here.

Assays:
MAS F112A mutant = biological target: T1, MAS F112A mutant (Homo sapiens, UniProt P04201, F112A); assay: Calcium assay, F112A MAS mutant stable cell line; format: cell-based
T1 construct: expressed in transfected cells
T1 sequence (P04201 1-325 F112A): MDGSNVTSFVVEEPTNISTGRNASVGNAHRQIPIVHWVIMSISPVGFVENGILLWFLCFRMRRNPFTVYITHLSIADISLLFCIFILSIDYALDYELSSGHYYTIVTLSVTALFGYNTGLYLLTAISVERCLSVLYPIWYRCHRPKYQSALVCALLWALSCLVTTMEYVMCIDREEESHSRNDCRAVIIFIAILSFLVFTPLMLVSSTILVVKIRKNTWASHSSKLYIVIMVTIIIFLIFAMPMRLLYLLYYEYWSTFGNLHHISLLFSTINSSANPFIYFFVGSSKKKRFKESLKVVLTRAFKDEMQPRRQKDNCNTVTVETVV
Experimental: (§1) The assay was performed using FLIPR Calcium 5 assay kit (Molecular Devices, Sunnyvale, CA). For calcium measurements, cells at a density of 125,000 cells/well in 100 µl medium were seeded onto a 96-well clear bottom black cell culture plate that was pre-coated with poly-L-lysine. In the calcium assays the cell density of 125,000 cells/well was consistently maintained to minimize variability between independent experiments. The cells were seeded in induction media to induce MAS expression or in complete media for negative controls. The plate was maintained in a cell culture incubator for 26–28 h. The cells were then serum starved for 2 h by replacing the medium with 100 µl of serum free DMEM. In the case of pre-treatment with pan-inhibitor of G protein signaling, BIM-46187, the cells were initially serum starved for 1 h by replacing the medium with 50 µl of serum free DMEM. After 1 h, 50 µl of BIM-46187 was added to the cells to a final concentration of 25 µM and treated for another 1 h. Following serum starvation, 100 µl of calcium sensitive dye along with 2x (2.5 mM final concentration) probenecid (Life Technologies, Grand Island, NY) was added to the cells. During this step, AR-inverse agonist or BIM-46187 was also added at desired concentrations to the calcium dye preparation in case of experiments where cells were pre-treated with these inhibitors. The cells were maintained for one hour in the cell culture incubator. […] The instrument was programmed in FLEX mode to add ligands (50 µl at 5x concentration) to the cells and to monitor the fluorescence before and after adding the ligands. […]
(§2) The kinetic parameter t1/2 (time taken to reach half of the maximum response) was determined using SoftMax Pro software supplied with the FlexStation 3 instrument (Molecular Devices, Sunnyvale, CA).
(§3) For re-stimulation assays, the data is expressed as the percentage of maximum agonist stimulation to allow for ready comparison between individual experiments. […]

MAS [1] = test system: MAS; design: method as in ref [9] (a number printed in a supplementary file, which may have a reference list of its own: not looked up in the article's list); details: Rat MAS; ref [9]; read-out: EC50 (cAMP assay); cited from earlier work
MAS [2] = biological target: T2, MAS (Homo sapiens, UniProt P04201); design: method as in ref [9] (a number printed in a supplementary file, which may have a reference list of its own: not looked up in the article's list); details: ref [9], read-out: EC50 (IP1 assay); cited from earlier work
T2 construct: expressed in transfected cells
T2 sequence (P04201 1-325): T1 sequence (P04201 1-325 F112A) with A112F

MAS M244A mutant [3] = biological target: T3, MAS M244A mutant (Homo sapiens, UniProt P04201, M244A); assay: IP1 assay, M244A MAS mutant stable cell line; format: cell-based
T3 construct: expressed in transfected cells
T3 sequence (P04201 1-325 M244A): T1 sequence (P04201 1-325 F112A) with A112F, M244A
From the text: The WT MAS expression construct was synthesized with an N-terminal myc-tag (Figure 1) by GenScript (Piscataway, NJ). The myc-tagged WT MAS from this vector was initially sub-cloned into pcDNA3.1 and later sub-cloned into tetracycline/doxycycline inducible vector pcDNA 5/TO (Life Technologies, Grand Island, NY). Four different ligand binding MAS mutants (F112A, I191A, M244A and T270A) were created using site-directed mutagenesis of WT myc-tagged MAS in pcDNA3.1 or pcDNA 5/TO vector background (Agilent Technologies, Santa Clara, CA). […]
IP1 levels in the cells were measured using the IP-One Tb kit (Cisbio US, Bedford, MA). […] Time-resolved ratiometric fluorescence emission measurements at 665 nm and 620 nm were taken after excitation at 343 nm on FlexStation 3 instrument. […]
For re-stimulation assays, the data is expressed as the percentage of maximum agonist stimulation to allow for ready comparison between individual experiments. For the IP1 assay, a standard curve was generated using the 4-Parameter logistic equation fit of the HTRF readings of IP1 standards using the SoftMax Pro software. […] In the luciferase assay, the luminescence measurements (RLU) are presented as a ratio of firefly to renilla luciferase activity. […]

MAS M244A mutant [4] = biological target: T3, MAS M244A mutant; assay: Calcium assay, M244A MAS mutant stable cell line; format: cell-based
Experimental: as §1, §2, §3

MAS [5] = test system: MAS; design: method as in ref [9] (a number printed in a supplementary file, which may have a reference list of its own: not looked up in the article's list); details: Rat MAS; ref [9]; read-out: EC50 (IP1 assay); cited from earlier work
MAS [6] = biological target: T2, MAS; design: method as in ref [9] (a number printed in a supplementary file, which may have a reference list of its own: not looked up in the article's list); details: ref [9], read-out: EC50 (cAMP assay); cited from earlier work

SMILES | EC50, Calcium assay (MAS F112A mutant) | t1/2, Calcium assay (MAS F112A mutant) | EC50 (MAS [1]) [nM] | EC50 (MAS [2]) [nM] | EC50, IP1 assay (MAS M244A mutant [3]) | EC50, Calcium assay (MAS M244A mutant [4]) | t1/2, Calcium assay (MAS M244A mutant [4]) | EC50 (MAS [5]) [nM] | EC50 (MAS [6]) [nM] | IC50, IP1 assay (MAS M244A mutant [3])
COc1cc([N+](=O)[O-])ccc1S(=O)(=O)N1CC(CN2CCN(c3ccccn3)CC2)C(c2cccc(F)c2)C1 (centres unmarked) [AR-agonist] | cbd | cbd | 1710 | 350 | cbd | cbd | cbd | 170 | 720 | 
C=CCCN1CCC2(CC1)CN(C(=O)c1c(F)cccc1F)c1ccc(Cl)cc12 [AR-inverse] |  |  |  |  |  |  |  | 348 |  | cbd
